Source: patent US20250144067A1, “PERSONALIZED STARVATION THERAPY FOR CANCER” (Faeth Therapeutics, Inc., priority 2021, published 2025)
Where a name gives a salt, the structure may show the parent alone.

Tests used:
[1] = system: NCI-H292 lung cancer cells; assay: FDA drug screening, complete media vs cholesterol-free media without statin (TABLE 1); format: cell-based, human
[2] = system: NCI-H292 lung cancer cells; assay: FDA drug screening, complete media vs cholesterol-free media with simvastatin (TABLE 2); format: cell-based, human; conditions: for Cholesterol-free media + simvastatin (0.04 μM) / Complete Media: NCI-H292 cells
[3] = Complete minus Cholesterol-free, >0 enhanced anti-cancer activity, about 0 neutral, <0 antagonist
[4] = NCI-H292 cells, cholesterol-free media without statin, FDA drug library screen
[5] = NCI-H292 cells, complete media, FDA drug library screen
[6] = cholesterol-free media with simvastatin 0.04 μM, FDA drug library screen (TABLE 2)
[7] = complete media, FDA drug library screen (TABLE 2)
[8] = complete media minus cholesterol-free media + simvastatin (0.04 μM), >0 enhanced anti-cancer activity, about 0 neutral, <0 antagonist
[9] = Complete minus Cholesterol-free, greater than 0 enhanced anti-cancer activity, about 0 neutral, below 0 antagonist
[10] = NCI-H292 cells, FDA drug library screen, cholesterol-free media without statin
[11] = NCI-H292 cells, FDA drug library screen, complete media
[12] = Complete minus Cholesterol-free, greater than 0 enhanced anti-cancer activity, about 0 neutral, below 0 antagonists
[13] = NCI-H292 cells in cholesterol-free media without statin
[14] = NCI-H292 cells in complete media
[15] = complete media minus cholesterol-free media + simvastatin, >0 enhanced anti-cancer activity, about 0 neutral, <0 antagonist
[16] = NCI-H292 cells, cholesterol-free media without statin
[17] = complete vs cholesterol-free media, >0 enhanced anti-cancer activity, about 0 neutral, <0 antagonist
[18] = FDA drug library screen, cholesterol-free media with simvastatin 0.04 μM
[19] = FDA drug library screen, complete media
[20] = complete vs cholesterol-free media, greater than 0 enhanced anti-cancer activity, about 0 neutral, below 0 antagonists
[21] = complete media vs cholesterol-free media + simvastatin (0.04 μM), >0 enhanced anti-cancer activity, about 0 neutral, <0 antagonist
[22] = FDA library drug in cholesterol-free media with simvastatin 0.04 μM
[23] = FDA library drug in complete media

COC(=O)c1ccc2c(c1)NC(=O)/C2=C(\Nc1ccc(N(C)C(=O)CN2CCN(C)CC2)cc1)c1ccccc1 [Nintedanib esylate]
Difference [1, 3]: 0.02 | Cholesterol-free [1, 4]: 0.5114 | Complete [1, 5]: 0.5279 | Cholesterol-free media + simvastatin (0.04 μM) [2, 6]: 0.7218 | Complete Media [2, 7]: 0.6577 | Difference [2, 8]: −0.06

COC(=O)c1ccc2c(c1)NC(=O)/C2=C(\Nc1ccc(N(C)C(=O)CN2CCN(C)CC2)cc1)c1ccccc1 [Nintedanib]
Difference [1, 9]: −0.17 | Cholesterol-free [1, 10]: 0.7067 | Complete [1, 11]: 0.5362 | Cholesterol-free media + simvastatin (0.04 μM) [2, 6]: 0.7141 | Complete Media [2, 7]: 0.7297 | Difference [2, 8]: 0.02

NC(=O)c1cccc2cn(-c3ccc([C@@H]4CCCNC4)cc3)nc12 [Niraparib (hydrochloride)]
Difference [1, 12]: −0.48 | Cholesterol-free [1, 13]: 1.435 | Complete [1, 14]: 0.9534 | Cholesterol-free media + simvastatin (0.04 μM) ([2]; cholesterol-free media with simvastatin 0.04 μM, cell growth value in FDA drug screen): 0.7422 | Complete Media ([2]; complete media, cell growth value in FDA drug screen): 0.838 | Difference [2, 15]: 0.10

NC(=O)c1cccc2cn(-c3ccc([C@@H]4CCCNC4)cc3)nc12 [Niraparib]
Difference [1, 3]: −0.30 | Cholesterol-free [1, 16]: 1.29 | Complete ([1]; NCI-H292 cells, complete media): 0.9917 | Cholesterol-free media + simvastatin (0.04 μM) [2, 6]: 1.191 | Complete Media [2, 7]: 1.193 | Difference [2, 8]: 0.00

CC(=O)Oc1ccccc1C(=O)Nc1ncc([N+](=O)[O-])s1 [Nitazoxanide]
Cholesterol-free [1, 4]: 1.033 | Difference [1, 17]: 0.12 | Cholesterol-free media + simvastatin (0.04 μM) [2, 6]: 1.209 | Complete Media [2, 7]: 1.209 | Difference [2, 8]: 0.00

O=C1CCCC(=O)C1C(=O)c1ccc(C(F)(F)F)cc1[N+](=O)[O-] [Nitisinone]
Difference [1, 9]: −0.08 | Cholesterol-free [1, 10]: 0.8746 | Complete [1, 11]: 0.7963 | Cholesterol-free media + simvastatin (0.04 μM) [2, 18]: 0.9427 | Complete Media [2, 19]: 1.188 | Difference [2, 15]: 0.25

CCOC(=O)C1=C(C)NC(C)=C(C(=O)OC)C1c1cccc([N+](=O)[O-])c1 (centres unmarked) [Nitrendipine]
Cholesterol-free [1, 16]: 1.587 | Complete ([1]; NCI-H292 cells, complete media): 1.208 | Difference [1, 20]: −0.38 | Cholesterol-free media + simvastatin (0.04 μM) [2, 6]: 1.103 | Complete Media [2, 7]: 1.042 | Difference [2, 8]: −0.06

O=C1CN(/N=C/c2ccc([N+](=O)[O-])o2)C(=O)N1 [Nitrofurantoin]
Difference [1, 9]: −0.16 | Cholesterol-free [1, 10]: 1.115 | Complete [1, 11]: 0.9573 | Cholesterol-free media + simvastatin (0.04 μM) [2, 18]: 0.848 | Complete Media [2, 19]: 0.7708 | Difference [2, 21]: −0.08

NC(=O)N/N=C/c1ccc([N+](=O)[O-])o1 [Nitrofurazone]
Cholesterol-free [1, 4]: 1.281 | Complete [1, 5]: 1.416 | Difference [1, 17]: 0.13 | Cholesterol-free media + simvastatin (0.04 μM) [2, 22]: 1.854 | Difference [2, 21]: −0.70

O=[N+]([O-])c1ccc(O)c2ncccc12 [Nitroxoline]
Cholesterol-free [1, 4]: 0.8448 | Complete [1, 5]: 1.027 | Difference [1, 17]: 0.18 | Cholesterol-free media + simvastatin (0.04 μM) [2, 18]: 1.871 | Complete Media [2, 19]: 1.743 | Difference [2, 21]: −0.13

CNC(=C[N+](=O)[O-])NCCSCc1csc(CN(C)C)n1 [Nizatidine]
Difference [1, 3]: −0.23 | Cholesterol-free [1, 16]: 1.253 | Complete ([1]; NCI-H292 cells, complete media): 1.026 | Cholesterol-free media + simvastatin (0.04 μM) [2, 18]: 1.118 | Complete Media [2, 19]: 0.9809 | Difference [2, 21]: −0.14

CC(=O)O[C@]1(C(C)=O)CC[C@H]2[C@@H]3C=C(C)C4=CC(=O)CC[C@@H]4[C@H]3CC[C@@]21C [Nomegestrol acetate]
Difference [1, 9]: −0.14 | Cholesterol-free [1, 10]: 0.9161 | Complete [1, 11]: 0.7734 | Cholesterol-free media + simvastatin (0.04 μM) [2, 6]: 0.9875 | Complete Media [2, 7]: 0.9519 | Difference [2, 8]: −0.04

CCCCCCCCC(=O)NCc1ccc(O)c(OC)c1 [Nonivamide]
Complete ([1]; NCI-H292 cells, complete media): 1.201 | Difference ([1]; complete vs cholesterol-free media, […]): −0.42 | Cholesterol-free media + simvastatin (0.04 μM) ([2]; cholesterol-free media with simvastatin 0.04 μM, […]): 1.059 | Complete Media ([2]; complete media, […]): 1.139 | Difference ([2]; complete media minus cholesterol-free media + simvastatin, […]): 0.08

NC[C@H](O)c1ccc(O)c(O)c1 [Norepinephrine]
Difference [1, 3]: −0.02 | Cholesterol-free [1, 4]: 0.981 | Complete [1, 5]: 0.9634 | Cholesterol-free media + simvastatin (0.04 μM) [2, 6]: 0.9481 | Complete Media [2, 7]: 0.884 | Difference [2, 8]: −0.06

C#C[C@]1(OC(C)=O)CC[C@H]2[C@@H]3CCC4=CC(=O)CC[C@@H]4[C@H]3CC[C@@]21C [Norethindrone acetate]
Difference [1, 9]: −0.12 | Cholesterol-free [1, 10]: 1.033 | Complete [1, 11]: 0.9116 | Cholesterol-free media + simvastatin (0.04 μM) [2, 22]: 1.695 | Complete Media [2, 23]: 0.9691 | Difference [2, 21]: −0.73

C#C[C@]1(O)CC[C@H]2[C@@H]3CCC4=CC(=O)CC[C@@H]4[C@H]3CC[C@@]21C [Norethindrone]
Cholesterol-free [1, 4]: 1.186 | Complete [1, 5]: 1.412 | Difference [1, 17]: 0.23 | Cholesterol-free media + simvastatin (0.04 μM) [2, 18]: 0.8746 | Complete Media [2, 19]: 1.458 | Difference [2, 15]: 0.58

CCn1cc(C(=O)O)c(=O)c2cc(F)c(N3CCNCC3)cc21 [Norfloxacin]
Cholesterol-free [1, 4]: 1.043 | Complete [1, 5]: 1.123 | Difference [1, 17]: 0.08 | Cholesterol-free media + simvastatin (0.04 μM) [2, 22]: 1.696 | Complete Media [2, 23]: 1.396 | Difference [2, 21]: −0.30

C#CC1(O)CC[C@H]2[C@@H]3CCC4=CC(=O)CC[C@@H]4[C@H]3CC[C@@]21CC (some centres unmarked) [Norgestrel]
Cholesterol-free [1, 16]: 1.349 | Complete ([1]; NCI-H292 cells, complete media): 1.022 | Difference [1, 20]: −0.33 | Cholesterol-free media + simvastatin (0.04 μM) [2, 22]: 1.456 | Complete Media [2, 23]: 1.004 | Difference [2, 21]: −0.45

CNCCC=C1c2ccccc2CCc2ccccc21 [Nortriptyline (hydrochloride)]
Cholesterol-free [1, 16]: 1.336 | Complete ([1]; NCI-H292 cells, complete media): 1.01 | Difference [1, 20]: −0.33 | Cholesterol-free media + simvastatin (0.04 μM) ([2]; drug in cholesterol-free media with simvastatin 0.04 μM): 1.16 | Complete Media ([2]; drug in complete media): 0.9078 | Difference [2, 21]: −0.25

CC(C)C[C@@H](N)C(=O)N[C@H]1C(=O)N[C@@H](CC(N)=O)C(=O)N[C@H]2C(=O)N[C@H]3C(=O)N[C@H](C(=O)N[C@H](C(=O)O)c4cc(O)cc(O)c4-c4cc3ccc4O)[C@H](O)c3ccc(c(Cl)c3)Oc3cc2cc(c3O[C@@H]2O[C@H](CO)[C@@H](O)[C@H](O)[C@H]2O[C@H]2C[C@](C)(N)[C@H](O)[C@H](C)O2)Oc2ccc(cc2Cl)[C@H]1O.Cl [Norvancomycin (hydrochloride)]
Difference ([1]; Complete minus Cholesterol-free, […]): −0.07 | Cholesterol-free [1, 10]: 1.244 | Cholesterol-free media + simvastatin (0.04 μM) [2, 22]: 1.335 | Complete Media [2, 23]: 0.8954 | Difference ([2]; complete media vs cholesterol-free media + simvastatin (0.04 μM), […]): −0.44

COc1ccc2c(c1OC)C(=O)O[C@@H]2[C@H]1c2c(cc3c(c2OC)OCO3)CCN1C [Noscapine]
Difference [1, 3]: −0.20 | Cholesterol-free [1, 16]: 1.288 | Complete ([1]; NCI-H292 cells, complete media): 1.088 | Cholesterol-free media + simvastatin (0.04 μM) [2, 18]: 0.7586 | Complete Media [2, 19]: 1.21 | Difference [2, 15]: 0.45

CO[C@@H]1[C@@H](OC(N)=O)[C@@H](O)[C@H](Oc2ccc3c(O)c(NC(=O)c4ccc(O)c(CC=C(C)C)c4)c(=O)oc3c2C)OC1(C)C [Novobiocin (Sodium)]
Difference [1, 9]: −0.12 | Cholesterol-free [1, 10]: 1.193 | Complete [1, 11]: 1.072 | Cholesterol-free media + simvastatin (0.04 μM) [2, 18]: 1.139 | Complete Media [2, 19]: 1.056 | Difference [2, 21]: −0.08

CC(CCc1ccccc1)NC(C)C(O)c1ccc(O)cc1 (centres unmarked) [Nylidrin (hydrochloride)]
Difference [1, 12]: −0.53 | Cholesterol-free [1, 13]: 1.455 | Complete [1, 14]: 0.9273 | Cholesterol-free media + simvastatin (0.04 μM) [2, 18]: 0.6926 | Complete Media [2, 19]: 0.8576 | Difference [2, 15]: 0.17

CC[C@H]1[C@@H](O)[C@@H]2[C@H](CC[C@]3(C)[C@@H]([C@H](C)CCC(=O)O)CC[C@@H]23)[C@@]2(C)CC[C@@H](O)C[C@@H]12 [Obeticholic acid]
Cholesterol-free [1, 4]: 0.5907 | Complete [1, 5]: 0.9124 | Difference [1, 17]: 0.32 | Cholesterol-free media + simvastatin (0.04 μM) [2, 18]: 1.258 | Complete Media [2, 19]: 1.13 | Difference [2, 21]: −0.13

CCCCCCCCN=c1ccn(CCCCCCCCCCn2ccc(=NCCCCCCCC)cc2)cc1 [Octenidine (dihydrochloride)]
Difference [1, 3]: 0.01 | Cholesterol-free [1, 4]: 0.00456 | Complete [1, 5]: 0.01483 | Cholesterol-free media + simvastatin (0.04 μM) [2, 6]: −0.0001133 | Complete Media [2, 7]: −0.0003925 | Difference [2, 8]: 0.00

CCCCC(CC)COC(=O)c1ccccc1O (centres unmarked) [Octisalate]
Difference [1, 3]: −0.04 | Cholesterol-free [1, 4]: 2.188 | Complete [1, 5]: 2.15 | Cholesterol-free media + simvastatin (0.04 μM) [2, 18]: 0.992 | Complete Media [2, 19]: 0.8834 | Difference [2, 21]: −0.11

CCCCC(CC)COC(=O)C(C#N)=C(c1ccccc1)c1ccccc1 (centres unmarked) [Octocrylene]
Difference [1, 12]: −0.58 | Cholesterol-free [1, 13]: 1.541 | Complete [1, 14]: 0.9621 | Cholesterol-free media + simvastatin (0.04 μM) [2, 18]: 1.183 | Complete Media [2, 19]: 1.029 | Difference [2, 21]: −0.15
